{"source": "paper PMC9065678", "about": "“BI 1015550 is a PDE4B Inhibitor and a Clinical Drug Candidate for the Oral Treatment of Idiopathic Pulmonary Fibrosis” (Frontiers in Pharmacology, 2022)", "key": {"[1]": {"system": "LPS-induced TNF-α release in whole blood ex vivo", "experiment": "LPS-induced TNF-α release in whole blood ex vivo in mice", "parameters": "species or system mouse", "experimental": "BI 1015550 was suspended in H2O plus three equivalents’ HCl (i.e. 66 µL HCl per mg of drug substance) to concentrations of […]. Female NMRI mice from Charles River (25–30 g) were used. Either vehicle (H2O plus three equivalents’ HCl) or BI 1015550 was administered orally (by gavage) in a volume of 10 mL/kg body weight resulting in final doses of 3.0, 1.0, 0.1, and 0.01 mg/kg body weight. 2 h after administration, the animals were anesthetized and blood was drawn by retroorbital puncture with heparinized capillaries before sacrifice by cervical dislocation. Blood was collected in Lithium-Heparin Microvettes® for anticoagulation. 100 µL of whole blood was pipetted into an Eppendorf tube containing either LPS solution (final concentration 900 ng/mL) or solvent. Subsequently, the samples were placed for 4 h in an incubator at 37°C, […], and 95% humidity before plasma was prepared by a two-step centrifugation at 10.840 × g over 10 min at 4°C. TNF-α concentrations in the plasma samples were determined using a commercially available TNF-α ELISA kit (BD OptEIA™ Mouse TNF ELISA Set from Becton Dickinson) according to the manufacturer’s instructions."}, "[2]": {"system": "LPS-stimulated IL-6 release", "experiment": "LPS-stimulated IL-6 release in human whole blood", "format": "cell-based", "conditions": "high concentrations", "experimental": "Heparinized whole blood was collected from the Aorta abdominalis of WI (Han) male rats (Charles River Laboratories, Sulzfeld, Germany) and from healthy male human donors, and treated with 1 µL (rat) or 2.5 µL (human) of BI 1015550 or vehicle [final DMSO concentration 0.5% (v/v)]. Final assay volumes were 200 μL (rat) and 500 μL (human). After incubation for 30 min at 37°C, 95% humidity, and 5% CO2, cultures were treated with LPS [final concentration 10 µg/mL (rat), 0.1 µg/mL (human)] or saline. After 7 h, plates were centrifuged at 3.200 × g at 4°C for 10 min and plasma was used for cytokine measurement. Meso Scale Discovery (MSD) (Rockville, MD, United States) rat and human pro-inflammatory panels were used for detection of TNF-α and IL-6 in rat plasma [diluted 1:2 (v/v)]) and human plasma [negative control undiluted, other samples diluted 1:200 (v/v)] according to the manufacturer’s instructions."}, "[3]": {"system": "LPS-induced neutrophil influx into the BALF", "experiment": "LPS-induced neutrophil influx into the BALF of Suncus murinus", "format": "in vivo", "text": "Compared with other animal species used to study emesis induction by PDE4 inhibitors, like ferrets, dogs, minipigs, or monkeys, Suncus murinus allows the testing of a sufficient number of animals to provide a high statistical power. […] Male Suncus murinus (weight 50–55 g) from Boehringer Ingelheim (Biberach an der Riss, Germany) or male Wistar rats (200–250 g, Charles River), eight animals per group, were used. […] For this purpose, animals in the positive control and treatment groups were put into a circular Plexiglas chamber with 16 pie-like compartments for one animal each, and were consecutively exposed to nebulized LPS for 30 min. The LPS solution used for nebulization contained 1 mg/mL LPS in phosphate-buffered saline (PBS). Nebulization was performed with the commercially available PARI Master® nebulizer with a PARI Master® LL adapter (Pari GmbH, Starnberg, Germany). 4 h after LPS exposure, the animals were anesthetized and euthanized by cervical dislocation. After sacrifice, the trachea was cannulated and bronchoalveolar lavage was performed by instilling and re-aspirating two-times 1 mL (Suncus murinus) or 5 mL (rat) lavage buffer (PBS +2% bovine serum albumin). BALF volumes were recorded manually. Determination of neutrophil numbers in BALF was performed using a blood hemacytometer (Sysmex XT-1800i, Kobe, Japan)."}, "[4]": {"molecular_target": "T1, PDE4C (Homo sapiens, UniProt Q08493)", "T1 construct": "made in house; host or cells: SF9 insect cells (baculovirus, Bac-To-Bac, pFastbac)", "T1 sequence (Q08493 107-712)": "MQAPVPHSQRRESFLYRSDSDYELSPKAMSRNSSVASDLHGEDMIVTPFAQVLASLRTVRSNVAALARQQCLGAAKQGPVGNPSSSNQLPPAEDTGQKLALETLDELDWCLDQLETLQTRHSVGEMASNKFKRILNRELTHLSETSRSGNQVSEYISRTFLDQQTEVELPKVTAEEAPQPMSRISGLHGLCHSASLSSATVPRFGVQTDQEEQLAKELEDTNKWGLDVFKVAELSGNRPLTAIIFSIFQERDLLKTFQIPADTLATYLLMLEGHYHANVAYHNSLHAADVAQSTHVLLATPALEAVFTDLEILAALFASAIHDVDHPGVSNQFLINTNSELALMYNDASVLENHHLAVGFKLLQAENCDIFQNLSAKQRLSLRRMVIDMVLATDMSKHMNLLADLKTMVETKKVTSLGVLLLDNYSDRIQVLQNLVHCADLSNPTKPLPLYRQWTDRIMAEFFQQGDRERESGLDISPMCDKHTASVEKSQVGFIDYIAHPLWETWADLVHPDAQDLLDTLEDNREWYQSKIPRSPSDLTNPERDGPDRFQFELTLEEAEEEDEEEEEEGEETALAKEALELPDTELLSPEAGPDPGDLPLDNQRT", "experiment": "Recombinant PDE activity, scintillation proximity assay: PDE4C", "format": "biochemical", "conditions": "substrate [3H]cAMP, means from n independent experiments, read-out: IC50 PDE4C2", "experimental": "For the preparation of human recombinant PDEs of interest, the Bac-To-Bac baculoviral expression system from Invitrogen (Carlsbad, CA, United States) was used according to the instruction manual. […] The plasmids were transformed into DH10Bac bacteria, SF9 insect cells were transfected with the bacmid DNA, and the resulting baculoviruses were stored and used for further rounds of infections. For protein production, SF9 cells were infected until a cytopathic effect was visible (after about 72 h), the SF9 cells were harvested and broken up by 3 freeze/thaw cycles, and by shearing 10 times through a 0.1 mm cannula using a syringe. […] The Phosphodiesterase Scintillation Proximity Assays (TRKQ7090 for [^3H]cAMP, GE Healthcare Europe GmbH, Chalfont St Giles, United Kingdom, and TRKQ7100 for [^3H]cGMP, Perkin Elmer, Waltham, MA, United States) were performed essentially according to the instruction manual. […] Assay solutions containing recombinant baculoviral-expressed PDE (to give an activity of 5.000–20.000 cpm corresponding to 5–20% of total activity added), 50 mmol/L Tris/HCl pH 7.5, 8.3 mmol/L MgCl2, 1.7 mmol/L EGTA, and 10 µL radiolabeled substrate (0.05 µCi in H2O) were incubated for 1 h at 30°C (final volume 100 μL)."}}, "data": [{"smiles": "[O-][S+]1CCc2nc(N3CCC(c4ncc(Cl)cn4)CC3)nc(NC3(CO)CCC3)c21", "note": "(stereo not drawn) [BI 1015550]", "values": [{"measurement": "TNF-α concentration in plasma, inhibition in % given as negative number", "setting": "[1]; 0.01 mg/kg p.o.", "result": "−38", "unit": "%"}, {"measurement": "TNF-α concentration in plasma, inhibition in % given as negative number", "setting": "[1]; 0.1 mg/kg p.o.", "result": "−50", "unit": "%"}, {"measurement": "TNF-α concentration in plasma, inhibition in % given as negative number", "setting": "[1]; 1.0 mg/kg p.o.", "result": "−83", "unit": "%"}, {"measurement": "Inhibition of TNF-α", "setting": "[1]; 3 mg/kg oral, initial experiment, data not shown", "result": 93, "unit": "%"}, {"measurement": "ED50 of LPS-induced TNF-α release", "setting": "[1]; oral, blood taken 2 h after administration, LPS 4 h", "result": 0.04, "unit": "mg/kg"}, {"measurement": "IL-6 increase", "setting": "[2]", "result": "did not result in an IL-6 increase"}, {"measurement": "Maximum inhibition of IL-6 release", "setting": "[2]", "result": "30–40%"}, {"measurement": "Neutrophils in BALF, inhibition in % given as negative number", "setting": "[3]; 0.1 mg/kg p.o.", "result": "−23", "unit": "%"}, {"measurement": "Neutrophils in BALF, inhibition in % given as negative number", "setting": "[3]; 0.3 mg/kg p.o.", "result": "−36", "unit": "%"}, {"measurement": "Neutrophils in BALF, inhibition in % given as negative number", "setting": "[3]; 1.0 mg/kg p.o.", "result": "−59", "unit": "%"}, {"measurement": "ED50 LPS-induced BALF neutrophils", "setting": "[3]; oral, 30 min before nebulized LPS", "result": 0.6, "unit": "mg/kg"}, {"measurement": "IC50", "setting": "[4]", "result": 8.7, "unit": "µM"}]}]}
